Test results: US11464770B2, “Anticancer pharmaceutical composition” (NATIONAL CANCER CENTER, priority 2016, dated 2022)
Like-named read-outs stand apart in the source and are kept apart here.

How the values were obtained:
[1] = system: prostate cancer cell lines (e.g. DU145/TXR); assay: Cell based assay, cell viability (CellTiter-Glo), prostate cancer cell lines; conditions: Homo sapiens, 72 hours treatment, final concentration 0 to 2 μM
Description: (§1) Commercially available bladder cancer, prostate cancer, lung cancer, breast cancer, blood cancer, pancreatic cancer, colorectal cancer, brain cancer, neuroblastoma, melanoma, liver cancer, cervical carcinoma, ovarian cancer, renal cancer, and papilloma cell lines were each treated with trypsin-EDTA and cultured, followed by being seeded in each well of a 96 well plate. After 24 hours of treatment at constant temperature, the respective cells were treated with the candidate compound so that a final concentration became 0 to 2 μM. The treated cells were additionally cultured for 72 hours, and cell viability was measured by using an ATP detection method (CellTiter-Glo® Luminescent Cell Viability Assay, Promega).

[2] = system: blood cancer cell lines (e.g. HL-60, Jurkat, Raji, Ramos, Daudi, MOLT-4); assay: Cell based assay, cell viability (CellTiter-Glo), blood cancer cell lines; conditions: Homo sapiens
Description: as §1

brain cancer cell lines = assay: Cell based assay, cell viability (CellTiter-Glo), brain cancer cell lines; conditions: Homo sapiens
Description: as §1, with “After 24 hours of treatment at constant temperature, the respective cells were treated with the candidate compound so that a final concentration became 0 to 2 μM.” left out

[3] = system: RT4: human urinary bladder transitional cell papilloma; assay: Cell based assay, cytotoxicity in RT4 papilloma cells (selectivity); conditions: Homo sapiens, RT-4; RT4 cells
Description: as §1, with “After 24 hours of treatment at constant temperature, the respective cells were treated with the candidate compound so that a final concentration became 0 to 2 μM.” left out

[4] = CWR22 cells, read-out: IC50, prostate cancer cell line CWR22
[5] = DU-145, DU145/TXR cells, read-out: IC50, prostate cancer cell line DU145/TXR
[6] = DU-145, DU145 cells, read-out: IC50, prostate cancer cell line DU145
[7] = LNcap cells, read-out: IC50, prostate cancer cell line LNcap
[8] = PC-3 cells, read-out: IC50, prostate cancer cell line PC-3
[9] = MV4-11, blood cancer cell line MV-4-11, 72 hours, read-out: IC50, MV-4-11
[10] = blood cancer cell line Daudi, 72 hours, read-out: IC50, Daudi
[11] = blood cancer cell line HL-60, 72 hours, read-out: IC50, HL-60
[12] = blood cancer cell line Jurkat, 72 hours, read-out: IC50, Jurkat
[13] = blood cancer cell line MOLT-4, 72 hours, read-out: IC50, MOLT-4
[14] = blood cancer cell line Raji, 72 hours, read-out: IC50, Raji
[15] = blood cancer cell line Ramos (RA 1), 72 hours, read-out: IC50, Ramos (RA 1)
[16] = blood cancer cell line U-937, 72 hours, read-out: IC50, U-937
[17] = U138-MG, U-138 MG cell line, read-out: IC50, Brain cancer cell line U-138 MG
[18] = T98G cell line, read-out: IC50, Brain cancer cell line T98G
[19] = U-251 MG cell line, read-out: IC50, Brain cancer cell line U-251 MG

Row | IC50 [1, 4] [µM] | IC50 [1, 5] [µM] | IC50 [1, 6] [µM] | IC50 [1, 7] [µM] | IC50 [1, 8] [µM] | IC50 [2, 9] [µM] | IC50 [2, 10] [µM] | IC50 [2, 11] [µM] | IC50 [2, 12] [µM] | IC50 [2, 13] [µM] | IC50 [2, 14] [µM] | IC50 [2, 15] [µM] | IC50 [2, 16] [µM] | IC50 (brain cancer cell lines; [17]) [µM] | IC50 (brain cancer cell lines; [18]) [µM] | IC50 (brain cancer cell lines; [19]) [µM] | SMILES | IC50 [3] [µM]
1 | > 2 | > 2 | > 2 | > 2 | > 2 | > 2 | > 2 | > 2 | > 2 | > 2 | > 2 | > 2 | > 2 | > 10 | > 10 | > 2 | CSc1c(C(C)=O)c(=O)c2c(Cl)ccc(Br)c2n1C(C)=O [Compound 18, 1,1′-(8-bromo-5-chloro-2-(methylthio)-4-oxoquinoline-1,3(4H)-diyl)bis(ethan-1-one)] | > 10
2 | > 2 | > 2 | > 2 | > 2 | > 2 | > 2 | > 2 | > 2 | > 2 | > 2 | > 2 | > 2 | > 2 | > 10 | > 10 | > 2 | CC(=O)c1c([S+](C)[O-])n(C(C)=O)c2c(Br)ccc(Cl)c2c1=O (stereo not shown) [Compound 19, 1,1′-(8-bromo-5-chloro-2-(methylsulfinyl)-4-oxoquinoline-1,3(4H)-diyl)bis(ethan-1-one)] | > 10
3 | > 2 | > 2 | > 2 | > 2 | > 2 | > 2 | > 2 | > 2 | > 2 | > 2 | 1.18 | 1.51 | > 2 | > 10 | > 10 | > 2 | CC(=O)c1c([S+]([O-])Cc2ccccc2)n(C(=O)c2ccc(Br)cc2)c2c(Br)ccc(Cl)c2c1=O (stereo not shown) [Compound 20, 3-acetyl-2-(benzylsulfinyl)-8-bromo-1-(4-bromobenzoyl)-5-chloroquinolin-4(1H)-one] | > 10
4 | > 2 | > 2 | > 2 | > 2 | > 2 | > 2 | > 2 | > 2 | > 2 | > 2 | > 2 | > 2 | > 2 | > 10 | > 10 | > 2 | CC(=O)c1c(S(C)(=O)=O)n(C(=O)c2ccc(Br)cc2)c2c(Br)ccc(Cl)c2c1=O [Compound 21, 3-acetyl-8-bromo-1-(4-bromobenzoyl)-5-chloro-2-(methylsulfonyl)quinolin-4(1H)-one] | > 10
5 | > 2 | > 2 | > 2 | > 2 | > 2 | > 2 | > 2 | > 2 | > 2 | > 2 | > 2 | > 2 | > 2 | > 10 | > 10 | > 2 | CC(=O)c1c([S+](C)[O-])n(Cc2ccc(F)c(Cl)c2)c2c(Br)ccc(Cl)c2c1=O (stereo not shown) [Compound 22, 3-acetyl-8-bromo-5-chloro-1-(3-chloro-4-fluorobenzyl)-2-(methylsulfinyl)quinolin-4(1H)-one] | > 10
6 | > 2 | > 2 | > 2 | > 2 | > 2 | > 2 | > 2 | > 2 | > 2 | > 2 | > 2 | > 2 | > 2 | > 10 | > 10 | > 2 | CC(=O)c1c(SCc2ccccc2)n(C(=O)c2ccc(Br)cc2)c2c(Br)ccc(Cl)c2c1=O [Compound 23, 3-acetyl-2-(benzylthio)-8-bromo-1-(4-bromobenzoyl)-5-chloroquinolin-4(1H)-one] | > 10
7 | > 2 | > 2 | > 2 | > 2 | > 2 | > 2 | > 2 | > 2 | > 2 | > 2 | > 2 | > 2 | > 2 | > 10 | > 10 | > 2 | CC(=O)c1c(SC(C)C)[nH]c2c(Br)ccc(Cl)c2c1=O [Compound 24, 3-acetyl-8-bromo-5-chloro-2-(isopropylthio)quinolin-4(1H)-one] | > 10
8 | > 2 | > 2 | > 2 | > 2 | > 2 | > 2 | > 2 | > 2 | > 2 | > 2 | > 2 | > 2 | > 2 | > 10 | > 10 | > 2 | CC(=O)c1c([S+]([O-])C(C)C)[nH]c2c(Br)ccc(Cl)c2c1=O (stereo not shown) [Compound 25, 3-acetyl-8-bromo-5-chloro-2-(isopropylsulfinyl)quinolin-4(1H)-one] | > 10
9 | > 2 | > 2 | > 2 | > 2 | – | > 2 | > 2 | > 2 | 1.79 | 1.74 | > 2 | > 2 | > 2 | > 2 | > 2 | > 2 | CC(=O)c1c([S+]([O-])C(C)c2ccccc2)[nH]c2c(Br)ccc(Cl)c2c1=O (stereo not shown) [Compound 26, 3-acetyl-8-bromo-5-chloro-2-((1-phenylethyl)sulfinyl)quinolin-4(1H)-one] | > 10
10 | > 2 | > 2 | > 2 | > 2 | > 2 | > 2 | > 2 | > 2 | > 2 | > 2 | > 2 | > 2 | > 2 | > 10 | > 10 | > 2 | CC(=O)c1c(SCc2cccc(C#N)c2)[nH]c2c(Br)ccc(Cl)c2c1=O [Compound 27, 3-(((3-acetyl-8-bromo-5-chloro-4-oxo-1,4-dihydroquinolin-2-yl)thio)methyl)benzonitrile] | > 10
11 | 1.07 | 1.01 | 1.28 | 1.34 | 1.16 | 1.07 | 1.94 | 1.06 | 0.88 | 1.18 | 0.87 | 1.49 | 0.87 | 1.26 | > 10 | 0.88 | CC(=O)c1c([S+]([O-])Cc2cccc(C#N)c2)[nH]c2c(Br)ccc(Cl)c2c1=O (stereo not shown) [Compound 28, 3-(((3-acetyl-8-bromo-5-chloro-4-oxo-1,4-dihydroquinolin-2-yl)sulfinyl)methyl)benzonitrile] | > 10
12 | > 2 | > 2 | > 2 | > 2 | > 2 | > 2 | > 2 | > 2 | > 2 | > 2 | > 2 | > 2 | > 2 | > 10 | > 10 | > 2 | CC(=O)c1c(SCc2ccc(F)c(Cl)c2)[nH]c2c(Br)ccc(Cl)c2c1=O [Compound 30, 3-acetyl-8-bromo-5-chloro-2-((3-chloro-4-fluorobenzyl)thio)quinolin-4(1H)-one] | > 10
13 | > 2 | > 2 | > 2 | > 2 | > 2 | > 2 | > 2 | > 2 | > 2 | > 2 | > 2 | > 2 | > 2 | > 10 | > 10 | > 2 | CC(=O)c1c(SCc2ccc([N+](=O)[O-])cc2)[nH]c2c(Br)ccc(Cl)c2c1=O [Compound 32, 3-acetyl-8-bromo-5-chloro-2-((4-nitrobenzyl)thio)quinolin-4(1H)-one] | > 10
14 | > 2 | > 2 | > 2 | > 2 | > 2 | > 2 | > 2 | > 2 | > 2 | > 2 | > 2 | > 2 | > 2 | > 10 | > 10 | > 2 | CSc1c(C(C)=O)c(=O)c2c(Cl)ccc(Br)c2n1S(C)(=O)=O [Compound 35, 3-acetyl-8-bromo-5-chloro-1-(methylsulfonyl)-2-(methylthio)quinolin-4(1H)-one] | > 10
15 | > 2 | > 2 | > 2 | > 2 | > 2 | > 2 | > 2 | > 2 | > 2 | > 2 | > 2 | > 2 | > 2 | > 2 | > 10 | > 2 | CC(=O)c1c([S+](C)[O-])n(S(=O)(=O)C(F)(F)F)c2c(Br)ccc(Cl)c2c1=O (stereo not shown) [Compound 36, 3-acetyl-8-bromo-5-chloro-2-(methylsulfinyl)-1-((trifluoromethyl)sulfonyl)quinolin-4(1H)-one] | > 10
16 | > 2 | > 2 | > 2 | > 2 | > 2 | > 2 | > 2 | > 2 | > 2 | > 2 | > 2 | > 2 | > 2 | > 10 | > 10 | > 2 | CSc1c(C(C)=O)c(=O)c2c(Cl)ccc(Br)c2n1S(=O)(=O)c1ccc(Cl)cc1 [Compound 37, 3-acetyl-8-bromo-5-chloro-1-((4-chlorophenyl)sulfonyl)-2-(methylthio)quinolin-4(1H)-one] | > 10
